Legend:
[1] = Inhibition of TRK (unknown origin); parameters: species or system Homo sapiens
[2] = target: T1, High affinity nerve growth factor receptor (Homo sapiens, UniProt P04629); assay: Inhibition of recombinant His-tagged human TRKA cytoplasmic domain (441 to 796 residues) expressed in baculovirus expression system using biotin labelled TK peptide preincubated for 20 mins followed by substrate addition by HTRF assay
[3] = target: T1, High affinity nerve growth factor receptor; assay: Inhibition of NTRK1 in human KM12 cells; type: cell-based
[4] = system: OVCAR-3; assay: Cytotoxicity against human OVCAR3 cells after 24 to 72 hrs by MTT assay; type: functional, cell-based
[5] = system: SK-OV-3; assay: Cytotoxicity against human SKOV3 cells after 24 to 72 hrs by MTT assay; type: functional, cell-based
[6] = target: T1, High affinity nerve growth factor receptor; assay: Inhibition TRKA (unknown origin)
[7] = target: NTRK1/NTRK2 (Homo sapiens, UniProt P04629+Q16620); assay: Inhibition of TRKA/TRKB (unknown origin); type: protein assay
[8] = target: T1, High affinity nerve growth factor receptor; assay: Inhibition of recombinant N- terminal GST-tagged human NTRK1 expressed in baculovirus infected Sf9 cells using Poly(Glu:Tyr) as substrate after 45 mins
[9] = target: T1, High affinity nerve growth factor receptor; assay: Inhibition of N- terminal GST-tagged human TRKA cytoplasmic domain (436 to 790 end residues) using TK peptide as substrate after 60 mins by HTRF assay
[10] = target: T2, BDNF/NT-3 growth factors receptor (Homo sapiens, UniProt Q16620); assay: Inhibition of N- terminal GST-tagged human TRKB cytoplasmic domain (456 to 822 end residues) expressed in baculovirus expression system using TK peptide as substrate after 60 mins by HTRF assay
[11] = target: NT-3 growth factor receptor (Homo sapiens, UniProt Q16288); assay: Inhibition of N- terminal GST-tagged human TRKC catalytic domain (456 to 825 end residues) expressed in baculovirus expression system using TK peptide as substrate after 60 mins by HTRF assay
[12] = target: T3, Tyrosine-protein kinase JAK2 (Homo sapiens, UniProt O60674); assay: Inhibition of N-terminal His-tagged human JAK2 catalytic domain (826 to 1132 end residues) expressed in baculovirus expression system using TK peptide as substrate after 120 mins by HTRF assay
[13] = target: T1, High affinity nerve growth factor receptor; assay: Inhibition of recombinant full length human TRKA expressed in U2OS cells using Poly(Glu:Tyr) as substrate after 30 mins by scintillation counting assay
[14] = target: T2, BDNF/NT-3 growth factors receptor; assay: Inhibition of TRKB (unknown origin)
[15] = target: Tyrosine-protein kinase BTK (Homo sapiens, UniProt Q06187); assay: Inhibition of BTK (unknown origin)
[16] = target: T1, High affinity nerve growth factor receptor; assay: Inhibition of TRKA (unknown origin) using poly GT as substrate preincubated for 30 mins followed by substrate addition measured after 30 mins by TR-FRET Assay
[17] = target: T1, High affinity nerve growth factor receptor; assay: Inhibition of human TRKA expressed in human AD293 cells assessed as reduction in TrkA phosphorylation at Tyr490 residues preincubated for 20 mins followed by NGF-stimulation measure after 5 mins by ELISA; type: cell-based
[18] = Cmax in cancer patient at 100 mg, twice daily; type: ADME; parameters: dose 100 mg; settings: human, in vivo
[19] = Tmax in cancer patient at 100 mg, twice daily; type: ADME; settings: human, in vivo
[20] = AUC (0 to 24 hrs) in cancer patient at 100 mg, twice daily; type: ADME; parameters: dose 100 mg, time < 24 hr; settings: human, in vivo
[21] = system: KM12; assay: cells; settings: Homo sapiens
Description: Growth inhibition of human KM12 cells

[22] = Half life in healthy volunteer at 100 mg, twice daily; settings: human, in vivo
[23] = Oral bioavailability in healthy volunteer at 100 mg, twice daily; settings: human, in vivo
[24] = Apparent oral clearance in healthy volunteer at 100 mg, twice daily; settings: human, in vivo
[25] = Volume of distribution at steady state in healthy volunteer at 100 mg, twice daily; settings: human, in vivo, read-out: Vdss
[26] = target: T1, High affinity nerve growth factor receptor; assay: Inhibition TRKA (unknown origin) by cell based assay
[27] = target: T3, Tyrosine-protein kinase JAK2; assay: Inhibition of recombinant C-terminal His6-tagged human JAK2 (808 to end residues) expressed in baculovirus infected SF21 insect cells at 3 uM using Tyr 1054/1055 biotinylated peptide as substrate after 60 mins by Alphascreen assay relative to control
[28] = target: T3, Tyrosine-protein kinase JAK2; assay: Inhibition of recombinant C-terminal His6-tagged human JAK2 (808 to end residues) expressed in baculovirus infected SF21 insect cells using Tyr 1054/1055 biotinylated peptide as substrate after 60 mins by Alphascreen assay

T2 sequence (Q16620 whole entry, the tested form may be a part): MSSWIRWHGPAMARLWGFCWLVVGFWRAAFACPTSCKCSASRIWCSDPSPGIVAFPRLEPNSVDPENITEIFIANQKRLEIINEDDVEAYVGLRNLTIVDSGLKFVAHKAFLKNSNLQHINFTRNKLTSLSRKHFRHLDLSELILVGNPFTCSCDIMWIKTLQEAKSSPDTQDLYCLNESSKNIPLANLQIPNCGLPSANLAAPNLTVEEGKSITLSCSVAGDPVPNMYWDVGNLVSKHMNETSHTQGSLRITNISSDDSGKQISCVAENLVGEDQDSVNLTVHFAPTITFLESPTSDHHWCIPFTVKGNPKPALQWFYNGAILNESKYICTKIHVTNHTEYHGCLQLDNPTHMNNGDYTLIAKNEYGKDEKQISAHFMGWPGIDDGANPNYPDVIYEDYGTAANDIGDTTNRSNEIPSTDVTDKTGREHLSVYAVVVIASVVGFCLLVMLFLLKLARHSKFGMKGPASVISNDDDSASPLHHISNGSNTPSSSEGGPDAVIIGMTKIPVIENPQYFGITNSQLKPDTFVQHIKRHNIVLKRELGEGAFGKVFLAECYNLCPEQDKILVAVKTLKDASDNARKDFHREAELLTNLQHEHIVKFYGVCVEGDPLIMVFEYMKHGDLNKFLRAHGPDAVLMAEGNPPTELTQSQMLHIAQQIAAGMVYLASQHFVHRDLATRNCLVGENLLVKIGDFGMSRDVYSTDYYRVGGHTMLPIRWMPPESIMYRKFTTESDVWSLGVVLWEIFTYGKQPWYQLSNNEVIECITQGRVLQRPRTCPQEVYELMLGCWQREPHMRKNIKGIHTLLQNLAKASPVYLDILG
T1 sequence (P04629 whole entry, the tested form may be a part): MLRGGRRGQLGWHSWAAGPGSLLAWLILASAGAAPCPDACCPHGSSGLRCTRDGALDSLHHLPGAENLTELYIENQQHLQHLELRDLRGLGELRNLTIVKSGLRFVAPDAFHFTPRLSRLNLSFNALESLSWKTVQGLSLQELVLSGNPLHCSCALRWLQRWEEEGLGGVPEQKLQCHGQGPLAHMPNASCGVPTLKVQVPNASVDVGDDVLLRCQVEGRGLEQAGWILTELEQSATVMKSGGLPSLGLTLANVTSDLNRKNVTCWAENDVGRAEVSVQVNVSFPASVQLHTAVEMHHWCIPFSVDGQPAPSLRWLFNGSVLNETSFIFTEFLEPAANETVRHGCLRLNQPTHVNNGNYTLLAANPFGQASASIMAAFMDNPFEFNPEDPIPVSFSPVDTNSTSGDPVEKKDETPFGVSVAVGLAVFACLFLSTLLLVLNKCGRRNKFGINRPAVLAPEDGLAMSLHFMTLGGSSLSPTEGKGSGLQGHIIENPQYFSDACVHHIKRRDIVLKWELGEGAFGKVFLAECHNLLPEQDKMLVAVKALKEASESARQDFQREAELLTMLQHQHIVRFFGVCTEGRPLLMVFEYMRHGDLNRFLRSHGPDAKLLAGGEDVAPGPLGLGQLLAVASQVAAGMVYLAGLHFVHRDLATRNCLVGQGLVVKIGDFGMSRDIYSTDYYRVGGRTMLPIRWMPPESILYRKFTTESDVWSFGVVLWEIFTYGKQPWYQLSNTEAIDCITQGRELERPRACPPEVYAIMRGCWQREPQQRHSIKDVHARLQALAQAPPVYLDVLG
T3 sequence (O60674 whole entry, the tested form may be a part): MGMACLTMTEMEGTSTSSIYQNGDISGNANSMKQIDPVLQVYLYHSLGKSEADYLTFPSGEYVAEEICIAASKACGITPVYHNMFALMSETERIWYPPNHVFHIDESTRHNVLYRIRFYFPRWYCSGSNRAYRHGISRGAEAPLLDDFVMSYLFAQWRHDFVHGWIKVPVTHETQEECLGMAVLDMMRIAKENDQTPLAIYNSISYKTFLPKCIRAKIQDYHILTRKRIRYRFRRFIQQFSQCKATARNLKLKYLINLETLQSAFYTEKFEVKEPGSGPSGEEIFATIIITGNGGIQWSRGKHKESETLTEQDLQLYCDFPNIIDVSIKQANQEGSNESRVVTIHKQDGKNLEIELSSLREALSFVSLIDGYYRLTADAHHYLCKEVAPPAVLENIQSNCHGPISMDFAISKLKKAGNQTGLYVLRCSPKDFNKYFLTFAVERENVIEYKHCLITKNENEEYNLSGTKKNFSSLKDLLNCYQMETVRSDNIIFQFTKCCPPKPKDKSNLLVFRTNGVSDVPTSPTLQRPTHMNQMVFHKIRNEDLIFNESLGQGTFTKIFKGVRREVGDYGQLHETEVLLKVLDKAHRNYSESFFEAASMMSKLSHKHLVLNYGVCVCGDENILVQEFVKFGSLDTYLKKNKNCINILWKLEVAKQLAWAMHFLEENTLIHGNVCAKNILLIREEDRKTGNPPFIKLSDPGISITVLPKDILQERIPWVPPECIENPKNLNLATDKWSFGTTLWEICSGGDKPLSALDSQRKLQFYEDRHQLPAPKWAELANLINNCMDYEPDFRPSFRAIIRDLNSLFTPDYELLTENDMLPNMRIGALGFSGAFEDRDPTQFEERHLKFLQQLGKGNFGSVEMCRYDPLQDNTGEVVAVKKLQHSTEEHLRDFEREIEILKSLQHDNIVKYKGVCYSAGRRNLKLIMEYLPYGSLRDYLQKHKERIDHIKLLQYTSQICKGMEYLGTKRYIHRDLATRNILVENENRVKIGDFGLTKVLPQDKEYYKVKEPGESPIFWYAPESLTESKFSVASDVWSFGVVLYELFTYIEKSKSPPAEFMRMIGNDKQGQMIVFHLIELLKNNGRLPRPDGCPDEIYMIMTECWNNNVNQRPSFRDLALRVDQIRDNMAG
NT-3 growth factor receptor, sequence (Q16288 whole entry, the tested form may be a part): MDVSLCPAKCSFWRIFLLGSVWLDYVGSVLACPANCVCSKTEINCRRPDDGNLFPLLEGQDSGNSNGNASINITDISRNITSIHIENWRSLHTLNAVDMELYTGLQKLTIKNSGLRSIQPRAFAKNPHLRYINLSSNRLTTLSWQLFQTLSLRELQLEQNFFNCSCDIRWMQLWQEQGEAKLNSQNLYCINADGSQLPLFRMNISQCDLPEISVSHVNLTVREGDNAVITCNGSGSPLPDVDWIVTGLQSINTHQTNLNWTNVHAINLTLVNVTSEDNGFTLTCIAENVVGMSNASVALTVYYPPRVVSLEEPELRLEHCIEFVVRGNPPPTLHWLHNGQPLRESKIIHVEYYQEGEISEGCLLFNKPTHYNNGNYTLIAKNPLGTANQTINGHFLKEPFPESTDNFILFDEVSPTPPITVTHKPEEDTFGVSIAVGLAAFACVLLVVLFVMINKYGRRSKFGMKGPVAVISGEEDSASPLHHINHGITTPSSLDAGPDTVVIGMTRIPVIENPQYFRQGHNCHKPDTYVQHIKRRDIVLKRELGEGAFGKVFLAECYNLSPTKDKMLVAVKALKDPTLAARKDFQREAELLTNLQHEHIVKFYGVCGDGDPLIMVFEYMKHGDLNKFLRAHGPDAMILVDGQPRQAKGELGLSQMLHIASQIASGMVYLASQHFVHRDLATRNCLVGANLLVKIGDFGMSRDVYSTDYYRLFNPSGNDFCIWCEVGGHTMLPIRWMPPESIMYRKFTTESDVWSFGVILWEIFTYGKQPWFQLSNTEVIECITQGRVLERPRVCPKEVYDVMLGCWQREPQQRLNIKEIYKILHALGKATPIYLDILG
Tyrosine-protein kinase BTK, sequence (Q06187 whole entry): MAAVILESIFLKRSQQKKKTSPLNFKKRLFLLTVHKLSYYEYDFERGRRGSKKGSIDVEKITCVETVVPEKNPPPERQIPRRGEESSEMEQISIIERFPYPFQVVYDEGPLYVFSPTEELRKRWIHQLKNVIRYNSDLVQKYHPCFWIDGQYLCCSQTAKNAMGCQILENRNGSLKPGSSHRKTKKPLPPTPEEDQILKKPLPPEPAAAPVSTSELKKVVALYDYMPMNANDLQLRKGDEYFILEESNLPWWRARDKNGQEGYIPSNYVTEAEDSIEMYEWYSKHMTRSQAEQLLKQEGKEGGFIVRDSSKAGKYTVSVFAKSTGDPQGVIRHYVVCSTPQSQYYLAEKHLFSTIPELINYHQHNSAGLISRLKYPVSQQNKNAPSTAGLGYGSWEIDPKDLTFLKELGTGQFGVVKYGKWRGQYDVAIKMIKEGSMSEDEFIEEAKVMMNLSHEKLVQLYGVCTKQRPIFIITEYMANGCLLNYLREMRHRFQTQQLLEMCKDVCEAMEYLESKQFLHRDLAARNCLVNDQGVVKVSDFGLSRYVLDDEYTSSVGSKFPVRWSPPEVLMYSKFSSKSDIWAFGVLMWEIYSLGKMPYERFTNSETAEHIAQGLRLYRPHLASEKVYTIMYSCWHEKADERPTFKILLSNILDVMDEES

Nc1cc(NS(=O)(=O)c2cccc(C(F)(F)F)c2)cc(-c2ccc3c(-c4ccncc4)c[nH]c3n2)c1
IC50 [1]: > 1 µM

Nc1cc(CNC(=O)c2cc(NC(=O)c3cc(-c4cccc(F)n4)c(Cl)cc3Cl)n(-c3ccccc3)n2)ccn1
IC50 [2]: 0.00102 µM

C[C@@H]1CCc2ncc(F)cc2[C@H]2CCCN2c2ccn3ncc(c3n2)C(=O)N1 [SELITRECTINIB]
IC50 [1]: > 1 µM

N#Cc1cc(F)cc([C@H]2C[C@H](F)CN2c2ccn3ncc(C#N)c3n2)c1
IC50 [3]: < 0.01 µM

H-TGLDSDGLYQN-OH
IC50 [4]: 0.2 µM
IC50 [5]: 0.2 µM

H-NTDLLNSNDNG-OH
IC50 [4]: 0.2 µM
IC50 [5]: 0.2 µM

CC(C)c1cc(C(=O)c2cccc(NC(=O)Nc3ccc(Cl)cc3Cl)c2)c2c(N)ncnn12
IC50 [6]: < 0.001 µM
IC50 [7]: < 0.001 µM

COc1ncc(F)cc1[C@H]1C[C@H](F)CN1c1ccn2ncc(C#N)c2n1
IC50 [3]: < 0.01 µM

CC(C)c1nnc(-c2cnn3ccc(N4CCCC4c4cc(F)ccc4F)nc23)o1 (centres undefined)
IC50 [8]: < 0.01 µM

OCC[C@H](Nc1nc(Nc2cc(C3CC3)[nH]n2)c2sccc2n1)c1ccc(F)cc1
IC50 [1]: 0.059 µM

NC(=O)c1c(N)nn2cc(N3CCC[C@@H]3c3cc(F)ccc3F)cnc12
IC50 [9]: < 0.001 µM
IC50 [10]: < 0.01 µM
IC50 [11]: < 0.01 µM
IC50 [12]: > 2 µM

CC(C)(C)c1nnc(-c2cnn3ccc(N4CCCC4c4cc(F)ccc4F)nc23)o1 (centres undefined)
IC50 [8]: < 0.01 µM

O=C(Nc1c(-c2ccccc2)nc2ccccn12)NC1c2ccccc2-c2ccccc21
IC50 [13]: 0.028 to 0.03 µM

CC(C)c1nnc(-c2cnn3ccc(N4CCCC4c4cc(F)ccc4F)nc23)s1 (centres undefined)
IC50 [8]: < 0.01 µM

CC(C)N1Cc2cc(cc(F)c2Cl)O[C@@H](C)CNC(=O)c2cnn3ccc1nc23
IC50 [13]: 0.0002 µM
IC50 [14]: 1.5 µM
IC50 [15]: 0.000536 µM

C[C@H](Nc1ncc(F)c(Nc2cc(C3CC3)[nH]n2)n1)c1ccc(F)cn1
IC50 [1]: 0.01 µM

CC(C)c1cc(C(=O)c2cccc(NC(=O)Nc3ccccc3)c2)c2c(N)ncnn12
IC50 [7]: < 0.001 µM

O=C(c1cnc2ccc(N3CCCC3c3cc(F)ccc3F)cn12)N1CC(O)C1 (centres undefined)
IC50 [16]: < 0.05 µM

N#Cc1cnn2ccc(N3C[C@@H](F)C[C@@H]3c3cc(F)ccc3F)nc12
IC50 [3]: < 0.01 µM

CC(C)c1cc(C(=O)c2cccc(NC(=O)Nc3ccc(OCc4ccccc4)cc3)c2)c2c(N)ncnn12
IC50 [7]: < 0.001 µM

C[C@H](Nc1nccc(Nc2cc(C3CC3)[nH]n2)n1)c1ccc(F)cc1
IC50 [1]: 0.067 µM

COCCN1C[C@@H](NC(=O)Nc2cc3ccccc3nc2-c2ccccc2)[C@H](c2ccccc2)C1
IC50 [17]: < 0.1 µM

C[C@H](Nc1cc(NCCO)c([N+](=O)[O-])c(Nc2cc(C3CC3)[nH]n2)c1)c1ccc(F)cc1
IC50 [1]: 1.24 µM

O=C(Nc1cnn2ccc(N3CCC[C@@H]3c3cc(F)ccc3F)nc12)N1CC[C@H](O)C1.O=S(=O)(O)O [LAROTRECTINIB SULFATE]
IC50 [1]: 0.002 to 0.02 µM
Cmax [18]: 0.788 µg/mL
Tmax [19]: 1 h
AUC [20]: 4.351 µg·h/mL
IC50 [21]: 0.0019 µM
half-life [22]: 2.9 h
bioavailability [23]: 32 to 37%
CL/F [24]: 98 L/h
Vd [25]: 48 L

C[C@H](Nc1ncc(Br)c(Nc2cc(C3CC3)[nH]n2)n1)c1ccc(F)cn1
IC50 [1]: 0.005 µM

C[C@H](Nc1ncc(Cl)c(Nc2cc(C3CC3)[nH]n2)n1)c1ccc(F)cn1
IC50 [1]: 0.008 µM

CS(=O)(=O)Nc1cccc(-c2c[nH]c3ncc(-c4cncc(NS(=O)(=O)c5ccccc5)c4)cc23)c1
IC50 [1]: > 1 µM

C[C@H](Nc1ccc([N+](=O)[O-])c(Nc2cc(C3CC3)[nH]n2)n1)c1ccc(F)cc1
IC50 [1]: 0.063 µM

Cc1nc(-c2ccccc2)c(NC(=O)Nc2cnc3ccccn23)s1
IC50 [13]: 0.048 µM

COCCN1C[C@@H](NC(=O)Nc2c(C)c(-c3ccnc(C)n3)nn2-c2ccccc2)[C@H](c2cccc(F)c2)C1
IC50 [13]: 0.0011 µM
IC50 [26]: 0.0019 µM

COCCN1C[C@@H](NC(=O)Nc2cc3c(nc2-c2ccccc2)CCCC3)[C@H](c2ccccc2)C1
IC50 [17]: < 0.1 µM

C[C@H](Nc1nc(Nc2cc(C3CC3)[nH]n2)c(F)cc1CNC(=O)C1CCC(=O)N1)c1ccc(F)cc1 (some centres undefined)
IC50 [1]: 0.611 µM

O=C(Nc1ccc(F)cc1)c1cnc2ccc(N3CCCC3c3cc(F)ccc3F)cn12 (centres undefined)
IC50 [16]: < 0.05 µM

O=C(Nc1c(-c2ccccc2)nc2sccn12)NC1c2ccccc2-c2ccccc21
IC50 [13]: 0.03 to 0.035 µM

Nc1nn2cc(N3CCC[C@@H]3c3cc(F)ccc3F)cnc2c1C(=O)Nc1ccc(F)cc1
IC50 [9]: < 0.001 µM
IC50 [10]: < 0.01 µM
IC50 [11]: < 0.01 µM
IC50 [12]: > 0.5 µM

COCCN1C[C@@H](NC(=O)Nc2c(C)c(C(C)(C)C)nn2-c2ccccc2)[C@H](c2ccc(F)c(F)c2)C1
IC50 [13]: 0.0015 µM
IC50 [26]: 0.0013 µM

Nc1cc(CNC(=O)c2cc(NC(=O)c3cc(-c4cccc(F)n4)c(F)cc3Cl)n(-c3ccccc3)n2)ccn1
IC50 [2]: 0.00104 µM

O=C(Nc1cccnc1-c1ccccc1)NC1c2ccccc2-c2ccccc21
IC50 [13]: 0.027 to 0.03 µM

Cn1ccc(-c2cc(C(=O)Nc3c(-c4ccccc4)nc4ccc(CO)cn34)ccc2C(F)(F)F)n1
IC50 [13]: 0.001 µM

CC(C)(O)c1ccc2nc(-c3ccccc3)c(NC(=O)c3cc(-c4ncccn4)c(C(F)(F)F)cc3F)n2c1
IC50 [13]: 0.00089 µM

Cc1cc(Nc2cncc(N[C@@H](C)c3ccc(F)cc3)n2)n[nH]1
inhibition [27]: 100%

COCCN1C[C@@H](NC(=O)Nc2cc3cc(OC)c(OC)cc3nc2-c2ccccc2)[C@H](c2ccccc2)C1
IC50 [17]: < 0.1 µM

C[C@H](Nc1nc(Nc2cc(C3CC3)[nH]n2)c(Cl)cc1Cl)c1ccc(F)cc1
IC50 [1]: 0.109 µM

COc1ccc2nc(N[C@@H](CO)c3ccc(F)cc3)nc(Nc3cc(C4CC4)[nH]n3)c2c1
IC50 [1]: 0.087 µM

O=C(c1cnc2ccc(N3CCCC3c3cc(F)ccc3F)cn12)N1CC[C@H](O)C1 (some centres undefined)
IC50 [16]: < 0.05 µM

CN(C)CCCc1cc(C(=O)c2cccc(NC(=O)Nc3ccc(Cl)cc3Cl)c2)c2c(N)ncnn12
IC50 [7]: < 0.001 µM

Cc1cc(Nc2cnc(C#N)c(N[C@@H](C)c3ccc(F)cc3)n2)n[nH]1
IC50 [28]: 0.033 µM

CC(C)N1Cc2cc(c(F)cc2F)OCCCNC(=O)c2cnn3ccc1nc23
IC50 [13]: 0.0002 µM
IC50 [14]: 5 µM
IC50 [15]: 0.00967 µM

C[C@H](Nc1cc(Nc2cc(C3CC3)[nH]n2)c([N+](=O)[O-])cc1F)c1ccc(F)cc1
IC50 [1]: 0.426 µM

CS(=N)(=O)c1ccc(-c2ccc(CNC(=O)Cn3c4c(c5ccccc53)CCn3nccc3-4)nc2)cc1 (centres undefined)
IC50 [13]: 0.0005 to 0.001 µM

CS(=N)(=O)c1ccc(-c2ccc(CNC(=O)Cn3c4c(c5cc(F)ccc53)CCn3nccc3-4)nc2)cc1 (centres undefined)
IC50 [13]: 0.0007 to 0.001 µM

N#Cc1cc([N+](=O)[O-])c(Nc2cc(C3CC3)[nH]n2)cc1N[C@@H](CO)c1ccc(F)cc1
IC50 [1]: 0.859 µM

COCCN1C[C@@H](NC(=O)Nc2c(C)c(-c3cnn(C)c3)nn2-c2ccccc2)[C@H](c2ccccc2)C1
IC50 [13]: 0.0017 µM
IC50 [26]: 0.0061 µM

CC(C)c1cc(C(=O)c2cccc(NC(=O)Nc3ccc4ccccc4c3)c2)c2c(N)ncnn12
IC50 [7]: < 0.001 µM

O=C(Cn1c2c(c3cc(F)ccc31)CCn1nccc1-2)NCc1ccc(-c2c(F)cccc2F)cn1
IC50 [13]: 0.0009 to 0.001 µM
